# Read-outs that look alike come from different tables or passages of the source.
# Legend:
# [1] = IV/PO pharmacokinetic study in dogs; assay type: in vivo, male beagle dogs; parameters: AUC(0-t): concentration or dose not given beside the values; settings: dog; for AUC(0-t): read-out: AUClast Mean
# Procedure: Each rat or dog PK study began with formulation of the test compound. Appropriate masses of each test compound were added into a volume of vehicle (e.g. 5% sodium bicarbonate, 5% dextrose in H2O) such that the final concentration of each compound was appropriate to be dosed at 2 mL/kg. Although a homogenous suspension were acceptable for oral dosing, intravenous dosing solutions were sterile-filtered (0.2 μm) prior to dosing to ensure no particulates were administered.
# In the dog study, male beagle dogs (3 per route) housed at Agilux Laboratories (Worcester, Mass.) and weighing between 7-12 kg received either a single oral gavage or a single intravenous (via indwelling catheter) dose of the dosing solution. The final dose was typically 0.1-2 mg/kg. Serial blood samples were harvested via direct venipuncture at 3 minutes, 15 minutes, 30 minutes, 1 hour, 2 hours, 4 hours, 6 hours, 8 hours, 12 hours, and 24 hours post-dose. All samples were collected manually into microtainer tubes containing EDTA as the anticoagulant and were processed to plasma by refrigerated centrifugation.
# Plasma samples were extracted with 3 volumes of MeCN containing a suitable internal standard. Extracts were reconstituted into 3 volumes of water containing 1% formic acid, and analyzed via HPLC-coupled MS/MS. Plasma concentration-time data were analyzed using the Phoenix software (Pharsight Corp., St. Louis, Mo.) to calculate pharmacokinetic parameters.
# Plasma clearance was determined from the intravenous arm of the study, and represents the rate at which plasma is cleared of drug. It is equal to the dose divided by the area under the plasma concentration-time curve. In addition to plasma clearance, it is also essential for an orally administered drug to reach efficacious systemic levels following oral delivery. Oral bioavailability is a measurement of plasma exposures following oral administration relative to exposures following intravenous administration.
# NEP = molecular target: T1, NEP (Rattus norvegicus, UniProt P07861); assay: PK-PD assay for NEP activity in conscious normotensive Sprague-Dawley rats (plasma cGMP after ANP bolus); assay type: in vivo, male Sprague-Dawley rats; settings: 3 mg/kg oral
# T1 construct: Pre-cannulated male Sprague-Dawley rats (3 per compound evaluated) between 8 and 10 weeks of age were obtained from Harlan Laboratories; from tissue; host or cells: whole animal: conscious male Sprague-Dawley rats (Harlan Laboratories)
# T1 sequence (P07861 1-750): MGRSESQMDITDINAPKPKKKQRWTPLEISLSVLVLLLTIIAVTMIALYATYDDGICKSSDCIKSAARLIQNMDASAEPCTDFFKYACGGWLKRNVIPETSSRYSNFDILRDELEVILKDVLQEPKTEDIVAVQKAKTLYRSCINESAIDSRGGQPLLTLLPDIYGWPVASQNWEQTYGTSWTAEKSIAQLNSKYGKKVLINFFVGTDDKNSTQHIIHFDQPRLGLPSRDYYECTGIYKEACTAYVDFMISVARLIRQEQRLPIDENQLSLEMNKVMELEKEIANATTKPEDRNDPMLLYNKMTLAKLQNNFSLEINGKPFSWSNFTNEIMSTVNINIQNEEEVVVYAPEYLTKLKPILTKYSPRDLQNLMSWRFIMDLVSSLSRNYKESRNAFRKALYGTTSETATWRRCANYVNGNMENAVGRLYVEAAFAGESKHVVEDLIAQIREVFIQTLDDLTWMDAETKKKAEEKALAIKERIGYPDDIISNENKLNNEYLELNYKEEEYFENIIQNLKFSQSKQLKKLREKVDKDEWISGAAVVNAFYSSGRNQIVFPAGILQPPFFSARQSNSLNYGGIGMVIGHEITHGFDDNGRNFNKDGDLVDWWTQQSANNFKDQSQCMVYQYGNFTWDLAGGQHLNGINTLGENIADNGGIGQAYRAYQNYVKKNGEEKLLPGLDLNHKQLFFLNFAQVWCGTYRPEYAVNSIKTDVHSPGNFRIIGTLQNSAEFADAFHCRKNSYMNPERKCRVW
# Procedure: Appropriate masses of each test compound were added into a volume of vehicle (e.g. 5% sodium bicarbonate, 5% dextrose in H2O) such that the final concentration of each compound was appropriate to be dosed at 2 mL/kg. Note that a homogenous suspension was deemed to be acceptable for oral dosing.
# Pre-cannulated male Sprague-Dawley rats (3 per compound evaluated) between 8 and 10 weeks of age were obtained from Harlan Laboratories (Indianapolis, Ind.). Rats received a single oral gavage of the dosing solution. The final dose was typically in the range of 3-30 mg/kg. Serial blood samples were harvested via the cannula implanted in the jugular vein at 3 minutes, 15 minutes, 35 minutes, 45 minutes, 1 hour, 2 hours, 4 hours, 6 hours, and 24 hours post-dose. Samples were collected into microtainer tubes containing EDTA as the anticoagulant and were processed to plasma by refrigerated centrifugation. Fifteen minutes prior to the 45 minute, 2 hour, 4 hour, 6 hour, and 24 hour samples, an IV bolus (30 μg/kg) of Atrial Natriuretic Peptide (ANP) was administered. […] Since binding of ANP to its receptor leads to activation of guanylyl cyclase and subsequent production of cyclic guanosine monophosphate (cGMP), the observation of elevated levels of cGMP (>20 nM) in plasma 15 minutes after the IV administration of the ANP bolus was interpreted as evidence of ongoing neprilysin inhibition. Elevated levels plasma cGMP levels 24 hours after dosing is an indicator of the duration pharmacologic effect, analogous to plasma clearance values as indicators of pharmacokinetic persistence.
# Plasma samples were extracted with 3 volumes of MeCN containing a suitable internal standard. Extracts were reconstituted into 3 volumes of water containing 1% formic acid. Plasma cGMP and test compound concentrations were quantified in plasma samples by HPLC-coupled mass spectrometric detection.
structure (smiles),measurement,setting,value
"Cc1cnc(C(=O)N[C@H](Cc2ccc(-c3cc(Cl)ccc3F)cc2)C[C@@H](O)C(=O)O)o1 [Compound 1, (2R,4R)-5-(5′-Chloro-2′-fluorobiphenyl-4-yl)-2-hydroxy-4-[(5-methyloxazole-2-carbonyl)amino]pentanoic Acid]",CLlast Mean,[1]; IV,0.29 L/h/kg
same,AUC(0-t),"[1]; male, beagle, plasma, IV",0.51 µg·h/mL
same,bioavailability,"[1]; male, beagle, plasma, PO vs IV AUClast",> 100%
same,AUC(0-t),"[1]; male, beagle, plasma, PO",0.53 µg·h/mL
same,cGMP Concentration 24 hours After Dosing Mean,"NEP; rat plasma, 15 min after IV ANP bolus (30 μg/kg), average of three determinations",112 nM
same,"potentiation of cGMP 24 hr after dosing compared to Compounds C2, C3 and C4",NEP; rat,more than 2 fold

# From patent publication US11642332B2, “(2R,4R)-5-(5′-chloro-2′-fluorobiphenyl-4-yl)-2-hydroxy-4-[(5-methyloxazole-2-carbonyl)amino]pentanoic acid” (THERAVANCE BIOPHARMA R&D IP, LLC, priority 2015, dated 2023)
